Columns and labels:
nociceptin receptor ORL1 [1] = target: T1, nociceptin receptor ORL1 (Homo sapiens, UniProt P41146); assay: Nociceptin receptor binding inhibition assay ([125I]Tyr14-Nociceptin, CHO/ORL1 membrane fractions, SPA); set-up: expressed in transfected cells; membrane fractions; details: CHO/ORL1 membrane fraction, 50 pM [125I]Tyr14-Nociceptin, 37° C., 60 minutes
Description: Nociceptin Receptor Binding Inhibition Assay
A cDNA that codes for a human nociceptin receptor gene was cloned into an expression vector pCR3 (by Invitrogen) to prepare pCR3/ORL1. Next, pCR3/ORL1 was transfected in CHO cells using a transfectam (by Nippongene) to obtain a stable expression strain (CHO/ORL1 cells) having resistance against 1 mg/ml G418. Membrane fractions were prepared from this stable expression strain to carry out a receptor binding assay. 11 μg of the membrane fraction, 50 pM [^125I]Tyr^14-Nociceptin (by Amersham Pharmacia), 1 mg of wheatgerm agglutinin SPA beads (PVT based, by Amersham Pharmacia) and each test compound were suspended in an NC buffer (50 mM Hepes, 10 mM sodium chloride, 1 mM magnesium chloride, 2.5 mM calcium chloride, 0.1% BSA, 0.025% bacitracin, pH 7.4) and incubated at 37° C. for 60 minutes, and then the radioactivity of the culture was determined. The binding activity to the nociceptin receptor was indicated by the 50% inhibition concentration (IC50 value) of [^125I]Tyr^14-Nociceptin binding by each test compound.

nociceptin receptor ORL1 [2] = target: T1, nociceptin receptor ORL1; assay: Antagonism against nociceptin-elicited G protein activation (GTPγ[35S] binding, CHO/ORL1 membranes); type: biochemical; set-up: expressed in transfected cells; membrane preparation; details: CHO/ORL1 membrane, 50 nM nociceptin, 200 pM GTPγ[35S], 25° C., 150 minutes
Description: Antagonism Against Nociceptin-Elicited G Protein Activation
CHO cells which stably expressed a nociceptin receptor ORL1 were used to investigate the action of each test compound against nociceptin-elicited G protein activation. A membrane prepared from the CHO/ORL1 cells, 50 nM nociceptin, 200 pM GTPγ[^35S] (by NEN), 1.5 mg of wheatgerm agglutinin SPA beads (by Amersham Pharmacia) and each test compound were mixed in a GDP buffer (20 mM Hepes, 100 mM sodium chloride, 10 mM magnesium chloride, 1 mM EDTA, 5 μM GDP, pH 7.4) and incubated at 25° C. for 150 minutes, and then the radioactivity was determined. The antagonism against the nociceptin-elicited G protein activation was shown by the 50% inhibition concentration (IC50 value) of the test compound against GTPγ[^35S] binding.

T1 sequence (P41146 whole entry): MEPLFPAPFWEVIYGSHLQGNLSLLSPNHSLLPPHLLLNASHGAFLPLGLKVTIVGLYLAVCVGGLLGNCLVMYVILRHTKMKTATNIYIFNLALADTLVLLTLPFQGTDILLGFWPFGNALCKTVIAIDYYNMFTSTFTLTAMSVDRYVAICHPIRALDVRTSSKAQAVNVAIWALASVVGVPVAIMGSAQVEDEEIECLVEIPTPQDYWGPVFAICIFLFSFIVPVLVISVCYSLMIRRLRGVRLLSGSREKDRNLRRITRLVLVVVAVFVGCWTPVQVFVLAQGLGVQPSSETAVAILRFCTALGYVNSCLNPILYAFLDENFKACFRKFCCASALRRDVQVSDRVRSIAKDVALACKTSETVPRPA

Row | SMILES | IC50 (nociceptin receptor ORL1 [1]) [nM] | IC50 (nociceptin receptor ORL1 [2]) [nM]
1 | CCc1c(CN[C@H]2CC[C@@H](F)CC2)nc(C)n1-c1cc(F)cc(F)c1 [Example 38, 1-(3,5-Difluorophenyl)-4-(cis-4-fluorocyclohexylamino)methyl-5-ethyl-2-methyl-1H-imidazole] | 6.8 | 6
2 | Cc1c(CN[C@H]2CC[C@@H](F)C2)nn(CCC#N)c1-c1cc(F)cc(F)c1 [Example 13, 1-(2-Cyanoethyl)-5-(3,5-difluorophenyl)-3-[(1S,3R)-3-fluorocyclopentylamino]methyl-4-methyl-1H-pyrazole] | 8.2 | 4.6
3 | Cc1c(CN[C@H]2CC[C@@H](F)C2)n[nH]c1-c1cc(F)cc(F)c1 [Example 8, 5-(3,5-Difluorophenyl)-3-[(1S,3R)-3-fluorocyclopentylamino]methyl-4-methyl-1H-pyrazole] | 7.5 | 7.5
4 | COCc1c(CN[C@H]2CC[C@@H](F)C2)n[nH]c1-c1cc(F)cc(F)c1 [Example 19, 5-(3,5-Difluorophenyl)-3-[(1S,3R)-3-fluorocyclopentylamino]methyl-4-methoxymethyl-1H-pyrazole] | 0.62 | 0.47
5 | Cc1ncc(-c2c(C)c(CN[C@H]3CC[C@@H](F)C3)nn2C(C)C)cc1F [Example 2, 3-[(1S,3R)-3-fluorocyclopentylamino]methyl-5-(5-fluoro-6-methylpyridin-3-yl)-1-isopropyl-4-methyl-1H-pyrazole] | 0.92 | 0.61
6 | COCc1c(CN[C@H]2CC[C@@H](OC)CC2)n[nH]c1-c1cc(F)cc(F)c1 [Example 34, 5-(3,5-Difluorophenyl)-3-(cis-4-methoxycyclohexylamino)methyl-4-methoxymethyl-1H-pyrazole] | 1.1 | 0.6

Source: US7829586B2, “Aryl-substituted nitrogen-containing heterocyclic compounds” (Banyu Pharmaceutical Co., Ltd., priority 2005, dated 2010)
